# Results: patent US8435976B2, “4-substituted pyridin-3-yl-carboxamide compounds and methods of use” (F. Hoffmann-La Roche, priority 2009, dated 2013)
# What was measured:
# PIM3 = biological target: T1, PIM3 (Homo sapiens, UniProt Q86V86); test: Pim-3 kinase enzymatic assay (Caliper LC3000, FAM-Pimtide substrate); assay type: biochemical; details: 55 pM PIM3, 10 μM ATP, 90 minutes; read-out: PIM3 LC3K (Ki)
# T1 construct: made in house
# Experimental: (§1) Reaction Buffer contained 10 mM HEPES, pH 7.2, 10 mM MgCl2, 0.01% Tween 20, 2 mM DTT.
# (§2) PIM reactions were carried out in a final volume of 10 μL per well in a 384-well plate. […] The separation of product and substrate was optimized by choosing voltages and pressure using Caliper's Optimizer software (Hopkinton, Mass.). The separation conditions used a downstream voltage of −500V, an upstream voltage of −2150V, and a screening pressure of −1.2 psi. […] Substrate conversion was calculated from the electrophoregram using HTS Well Analyzer software (Caliper Life Sciences, Hopkinton, Mass.). Ki values for the test compound were calculated.
# PIM2 = biological target: T2, PIM2 (Homo sapiens, UniProt Q9P1W9); test: Pim-2 kinase enzymatic assay (Caliper LC3000, FAM-Pimtide substrate); assay type: biochemical; details: 50 pM PIM2, 10 μM ATP, 90 minutes; read-out: PIM2 LC3K (Ki)
# T2 construct: made in house
# T2 sequence (Q9P1W9 whole entry): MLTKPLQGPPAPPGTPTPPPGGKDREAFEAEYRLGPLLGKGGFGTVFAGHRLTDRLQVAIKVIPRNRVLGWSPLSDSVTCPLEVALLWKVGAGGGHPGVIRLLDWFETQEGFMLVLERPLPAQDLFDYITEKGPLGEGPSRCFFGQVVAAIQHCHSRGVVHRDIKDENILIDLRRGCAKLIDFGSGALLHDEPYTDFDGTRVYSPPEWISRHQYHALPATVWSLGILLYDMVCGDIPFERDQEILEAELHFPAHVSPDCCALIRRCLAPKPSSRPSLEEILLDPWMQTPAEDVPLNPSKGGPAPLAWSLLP
# Experimental: as §1, §2
# BaF3 PIM2 cells = BaF3 PIM2 cells (Homo sapiens, UniProt Q9P1W9); test: BaF3 PIM2 cell proliferation (Cell Titer Glo); assay type: cell-based; details: incubated overnight; read-out: Prolif BaF3_PIM2 (IC50)
# Sequence of BaF3 PIM2 cells (Q9P1W9 whole entry, change not shown): as the sequence (Q9P1W9 whole entry) above
# Experimental: (§3) BaF3 parental line was obtained from the DSMZ repository. BaF3 lines transfected with PIM1 or PIM2 were generated. Mouse IL-3 was purchased from R&D Systems. G418 was purchased from Clontech. Media for BaF3 parental line contained RPMI, 10% FBS, 2 mM L-Glutamine, 2 ng/mL mIL-3. Media for BaF3 PIM1 & 2 lines contained RPMI, 10% FBS, 2 mM L-Glutamine, […]. Media for MM1.S line contained RPMI, 10% FBS, 2 mM L-Glutamine.
# (§4) BaF3 parental cells, BaF3 PIM1 cells, BaF3 PIM2 cells, and MM1.S cells were seeded at 2 k/well, 5 k/well, 5 k/well, and 10 k/well respectively, in a 384-well plate, at 45 μL/well. Test compound was added at 5 μL/well. BaF3 cells (parental and transfected) were incubated overnight, while MM1.S cells were incubated for 72 hours at 37° C., 5% CO2. Cell Titer Glo Reagent (Promega) was added at 50 μL/well, the plates were incubated for 30 minutes, and their luminescence read on an HT Analyst. IC50/EC50 values for the test compound were calculated.
# BaF3 PIM1 cells = BaF3 PIM1 cells (Homo sapiens, UniProt P11309); test: BaF3 PIM1 cell proliferation (Cell Titer Glo); assay type: cell-based; details: incubated overnight; read-out: Prolif BaF3_PIM1 (IC50)
# Sequence of BaF3 PIM1 cells (P11309 whole entry, change not shown): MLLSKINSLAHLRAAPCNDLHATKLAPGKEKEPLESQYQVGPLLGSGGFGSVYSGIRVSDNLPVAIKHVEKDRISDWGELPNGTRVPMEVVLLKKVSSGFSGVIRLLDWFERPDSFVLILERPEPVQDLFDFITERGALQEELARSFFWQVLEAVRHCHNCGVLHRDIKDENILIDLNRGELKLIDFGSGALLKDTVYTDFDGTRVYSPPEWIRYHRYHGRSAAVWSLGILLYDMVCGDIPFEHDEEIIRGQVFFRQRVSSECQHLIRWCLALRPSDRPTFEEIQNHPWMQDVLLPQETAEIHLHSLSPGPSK
# Experimental: as §3, §4
# PIM1 = biological target: T3, PIM1 (Homo sapiens, UniProt P11309); test: Pim-1 kinase enzymatic assay (Caliper LC3000, FAM-Pimtide substrate); assay type: biochemical; details: 20 pM PIM1, 10 μM ATP, 90 minutes; read-out: PIM1 LC3K (Ki)
# T3 construct: made in house
# T3 sequence (P11309 whole entry): as the sequence (P11309 whole entry, change not shown) above
# Experimental: as §1, §2
# MM1.S cells = test: MM1.S cell proliferation, 72 hours (Cell Titer Glo); assay type: cell-based; details: Homo sapiens, 72 hours, read-out: Prolif MM1S ATP (EC50)
# Experimental: as §3, §4
Structure (SMILES),Ki (PIM3),Ki (PIM2),GI50 (BaF3 PIM2 cells),GI50 (BaF3 PIM1 cells),Ki (PIM1),EC50 (MM1.S cells)
"Nc1sc(-c2cccc(F)c2F)nc1C(=O)Nc1cnccc1N1CCC[C@H](N)C1 [Example 43, (S)-5-amino-N-(4-(3-aminopiperidin-1-yl)pyridin-3-yl)-2-(2,3-difluorophenyl)thiazole-4-carboxamide]",0.022 nM,0.0185 nM,3900 nM,45.5 nM,0.061 nM,237 nM
"Nc1sc(-c2ccc3cccnc3c2)nc1C(=O)Nc1cnccc1N1CCC[C@H](N)C1 [Example 44, (S)-5-amino-N-(4-(3-aminopiperidin-1-yl)pyridin-3-yl)-2-(quinolin-7-yl)thiazole-4-carboxamide]",0.113 nM,0.512 nM,1900 nM,38.1 nM,0.032 nM,191 nM
"CN(C)C(=O)c1ccc(F)c(-c2nc(C(=O)Nc3cnccc3N3CCC[C@H](N)C3)cs2)c1 [Example 47, (S)-N-(4-(3-aminopiperidin-1-yl)pyridin-3-yl)-2-(5-(dimethylcarbamoyl)-2-fluorophenyl)thiazole-4-carboxamide]",2.11 nM,59.8 nM,> 20000 nM,3900 nM,3.98 nM,> 20000 nM
"Cc1cccc(C)c1-c1nc(C(=O)Nc2cnccc2N2CCC[C@H](N)C2)c(N)s1 [Example 54, (S)-5-amino-N-(4-(3-aminopiperidin-1-yl)pyridin-3-yl)-2-(2,6-dimethylphenyl)thiazole-4-carboxamide]",23.1 nM,72.3 nM,> 20000 nM,7800 nM,26.9 nM,15700 nM
"Nc1sc(-c2cn[nH]c2)nc1C(=O)Nc1cnccc1N1CCC[C@H](N)C1 [Example 56, (S)-5-amino-N-(4-(3-aminopiperidin-1-yl)pyridin-3-yl)-2-(1H-pyrazol-4-yl)thiazole-4-carboxamide]",0.08 nM,0.666 nM,> 20000 nM,1500 nM,0.115 nM,953 nM
"Nc1sc(-c2cnc3ccccn23)nc1C(=O)Nc1cnccc1N1CCC[C@H](N)C1 [Example 57, (S)-5-amino-N-(4-(3-aminopiperidin-1-yl)pyridin-3-yl)-2-(imidazo[1,2-a]pyridin-3-yl)thiazole-4-carboxamide]",0.229 nM,2.88 nM,> 20000 nM,494 nM,0.11 nM,5100 nM
"Nc1sc(-c2c(Cl)cccc2Cl)nc1C(=O)Nc1cnccc1N1CCC[C@H](N)C1 [Example 58, (S)-5-amino-N-(4-(3-aminopiperidin-1-yl)pyridin-3-yl)-2-(2,6-dichlorophenyl)thiazole-4-carboxamide]",0.554 nM,1.85 nM,6500 nM,232 nM,0.89 nM,3100 nM
"C=C(C)c1nc(C(=O)Nc2cnccc2N2CCC[C@H](N)C2)c(N)s1 [Example 59, (S)-5-amino-N-(4-(3-aminopiperidin-1-yl)pyridin-3-yl)-2-(prop-1-en-2-yl)thiazole-4-carboxamide]",48 nM,355 nM,> 20000 nM,> 20000 nM,18.2 nM,> 20000 nM
"Nc1sc(C2CCCC2)nc1C(=O)Nc1cnccc1N1CCC[C@H](N)C1 [Example 60, (S)-5-amino-N-(4-(3-aminopiperidin-1-yl)pyridin-3-yl)-2-cyclopentylthiazole-4-carboxamide]",0.279 nM,1.16 nM,17600 nM,465 nM,1.07 nM,1400 nM
"Nc1sc(-c2ccccc2F)nc1C(=O)Nc1cnccc1N1C[C@@H](N)C[C@@H](F)C1 [Example 62, 5-amino-N-(4-((3S,5R)-3-amino-5-fluoropiperidin-1-yl)pyridin-3-yl)-2-(2-fluorophenyl)thiazole-4-carboxamide]",0.326 nM,8.87 nM,10400 nM,6000 nM,1.34 nM,364 nM
"Nc1sc(-c2ncccc2F)nc1C(=O)Nc1cnccc1N1CCC[C@H](N)C1 [Example 66, (S)-5-amino-N-(4-(3-aminopiperidin-1-yl)pyridin-3-yl)-2-(3-fluoropyridin-2-yl)thiazole-4-carboxamide]",0.022 nM,0.0894 nM,2100 nM,40.6 nM,0.05 nM,2800 nM

# Next, values leading:
Ki (PIM3),Ki (PIM2),GI50 (BaF3 PIM2 cells),GI50 (BaF3 PIM1 cells),Ki (PIM1),EC50 (MM1.S cells),Structure (SMILES)
0.022 nM,0.0939 nM,2100 nM,30.4 nM,0.036 nM,121 nM,"Nc1sc(-c2ccc(F)cc2F)nc1C(=O)Nc1cnccc1N1CCC[C@H](N)C1 [Example 42, (S)-5-amino-N-(4-(3-aminopiperidin-1-yl)pyridin-3-yl)-2-(2,4-difluorophenyl)thiazole-4-carboxamide]"
0.338 nM,2.78 nM,12500 nM,613 nM,0.561 nM,5500 nM,"N[C@H]1CCCN(c2ccncc2NC(=O)c2csc(-c3ccccc3F)n2)C1 [Example 45, (S)-N-(4-(3-aminopiperidin-1-yl)pyridin-3-yl)-2-(2-fluorophenyl)thiazole-4-carboxamide]"
0.333 nM,6.88 nM,1400 nM,614 nM,0.5 nM,743 nM,"Nc1sc(-c2c(F)cccc2F)nc1C(=O)Nc1cnccc1N1CCNCC1 [Example 50, 5-amino-2-(2,6-difluorophenyl)-N-(4-(piperazin-1-yl)pyridin-3-yl)thiazole-4-carboxamide]"
0.041 nM,0.265 nM,> 20000 nM,197 nM,0.0812 nM,156 nM,"Nc1sc(-c2cc[nH]n2)nc1C(=O)Nc1cnccc1N1CCC[C@H](N)C1 [Example 51, (S)-5-amino-N-(4-(3-aminopiperidin-1-yl)pyridin-3-yl)-2-(1H-pyrazol-3-yl)thiazole-4-carboxamide]"
0.061 nM,0.495 nM,> 20000 nM,2200 nM,0.0269 nM,1300 nM,"Nc1sc(-c2c(F)cccc2F)nc1C(=O)Nc1cnccc1N1CCC[C@H](O)C1 [Example 52, (S)-5-amino-2-(2,6-difluorophenyl)-N-(4-(3-hydroxypiperidin-1-yl)pyridin-3-yl)thiazole-4-carboxamide]"
0.146 nM,0.839 nM,7600 nM,273 nM,0.208 nM,660 nM,"CC(C)NC(=O)c1ccc(F)c(-c2nc(C(=O)Nc3cnccc3N3CCC[C@@H](N)C3)c(N)s2)c1 [Example 53, (R)-5-amino-N-(4-(3-aminopiperidin-1-yl)pyridin-3-yl)-2-(2-fluoro-5-(isopropylcarbamoyl)phenyl)thiazole-4-carboxamide]"
1.01 nM,18.2 nM,> 20000 nM,7100 nM,0.642 nM,10400 nM,"Nc1sc(-c2ccc3nccn3c2)nc1C(=O)Nc1cnccc1N1CCC[C@H](N)C1 [Example 61, (S)-5-amino-N-(4-(3-aminopiperidin-1-yl)pyridin-3-yl)-2-(imidazo[1,2-a]pyridin-6-yl)thiazole-4-carboxamide]"
0.246 nM,3.86 nM,12900 nM,3400 nM,0.437 nM,19900 nM,"Nc1sc(-c2c(F)cccc2F)nc1C(=O)Nc1cnccc1N1C[C@@H](N)C[C@@H](F)C1 [Example 63, 5-amino-N-(4-((3S,5R)-3-amino-5-fluoropiperidin-1-yl)pyridin-3-yl)-2-(2,6-difluorophenyl)thiazole-4-carboxamide]"
47.3 nM,97.1 nM,> 20000 nM,> 20000 nM,94.9 nM,> 20000 nM,"Nc1sc(C2CCCNC2)nc1C(=O)Nc1cnccc1N1CCCC(N)C1 (stereo not drawn) [Example 65, 5-amino-N-(4-(3-aminopiperidin-1-yl)pyridin-3-yl)-2-(piperidin-3-yl)thiazole-4-carboxamide]"
